Test results reported in ChEMBL document CHEMBL4334449, “Jorunnamycin A from Xestospongia sp. Suppresses Epithelial to Mesenchymal Transition and Sensitizes Anoikis in Human Lung Cancer Cells” (J Nat Prod, 2019).
The source made the active and inactive calls. The calls are words filed in the database; no cut-off is given here.

Key:
NCI-H460 [1] = experiment: Inhibition of colony formation in human H460 cells under detachment conditions assessed as reduction in number of colonies at 0.1 to 0.5 uM after 14 days by microscopic method; assay type: functional, cell-based
NCI-H460 [2] = experiment: Induction of apoptosis in human H460 cells under detachment conditions assessed as early apoptotic cells at 0.5 uM after 24 hrs by Annexin V-FITC/propidium iodide staining-based flow cytometric analysis (reference value: 22.55%); assay type: functional
NCI-H23 [3] = experiment: Induction of anoikis in human H23 cells under detachment conditions assessed as reduction in cell viability at 0.05 uM up to 24 hrs by XTT assay; assay type: functional, cell-based
NCI-H292 [4] = experiment: Induction of apoptosis in human NCI-H292 cells under detachment conditions assessed as necrotic cells at 0.5 uM after 24 hrs by Annexin V-FITC/propidium iodide staining-based flow cytometric analysis (reference value: 1.28%); assay type: functional
NCI-H460 [5] = experiment: Antiproliferative activity against human H460 cells assessed as reduction in cell viability at 0.05 to 0.5 uM after 24 hrs by MTT assay; assay type: functional, cell-based
NCI-H460 [6] = experiment: Inhibition of epithelial-mesenchymal transition in human H460 cells under detachment conditions assessed as increase in claudin-1 protein level 0.05 to 0.5 uM after 12 hrs by Western blot analysis; assay type: functional, cell-based
Homo sapiens [7] = species on record: Homo sapiens; experiment: Inhibition of ERK phosphorylation in human H23 cells harboring with p53 mutant under detachment conditions at 0.05 to 0.5 uM after 12 hrs by Western blot analysis; assay type: cell-based
NCI-H23 [8] = experiment: Down regulation of caveolin-1 human H23 cells harboring with p53 mutant under detachment conditions at 0.05 to 0.5 uM after 12 hrs by Western blot analysis; assay type: functional, cell-based
NCI-H460 [9] = experiment: Induction of apoptosis in human H460 cells under detachment conditions at 0.05 to 0.5 uM after 24 hrs by Hoechst 33342/propidium iodide staining based fluorescent microscopic method; assay type: functional, cell-based
NCI-H460 [10] = experiment: Antiproliferative activity against human H460 cells under detachment conditions assessed as reduction in cell viability at 0.1 to 0.5 uM after 3 hrs by XTT assay; assay type: functional, cell-based
NCI-H460 [11] = experiment: Induction of apoptosis in human H460 cells assessed as accumulation of necrotic cells at 0.05 to 1 uM after 24 hrs by Hoechst 33342/propidium iodide staining based fluorescent microscopic method; assay type: functional, cell-based
NCI-H23 [12] = experiment: Induction of anoikis in human H23 cells harboring with p53 mutant under detachment conditions assessed as effect on Bax level at 0.05 to 0.5 uM after 12 hrs by Western blot analysis; assay type: functional, cell-based
NCI-H23 [13] = experiment: Induction of anoikis in human H23 cells harboring with p53 mutant under detachment conditions assessed as effect on P53 level at 0.05 to 0.5 uM after 12 hrs by Western blot analysis; assay type: functional, cell-based
Homo sapiens [14] = species on record: Homo sapiens; experiment: Inhibition of ERK phosphorylation in human H460 cells under detachment conditions at 0.05 to 0.5 uM after 12 hrs by Western blot analysis; assay type: cell-based
NCI-H460 [15] = experiment: Induction of apoptosis in human H460 cells under detachment conditions assessed as late apoptotic cells at 0.5 uM after 24 hrs by Annexin V-FITC/propidium iodide staining-based flow cytometric analysis (reference value: 15.44%); assay type: functional
NCI-H292 [16] = experiment: Induction of apoptosis in human NCI-H292 cells under detachment conditions assessed as late apoptotic cells at 0.5 uM after 24 hrs by Annexin V-FITC/propidium iodide staining-based flow cytometric analysis (reference value: 28.21%); assay type: functional
NCI-H292 [17] = experiment: Inhibition of colony formation in human NCI-H292 cells under detachment conditions assessed as reduction in number of colonies at 0.1 to 0.5 uM after 14 days by microscopic method; assay type: functional, cell-based
NCI-H460 [18] = experiment: Induction of anoikis in human H460 cells under detachment conditions after 12 hrs by Western blot analysis; assay type: functional, cell-based
NCI-H23 [19] = experiment: Inhibition of epithelial-mesenchymal transition in human H23 cells harboring with p53 mutant under detachment conditions assessed as increase in claudin-1 protein level 0.05 to 0.5 uM after 12 hrs by Western blot analysis; assay type: functional, cell-based
[20] = molecular target: Serine/threonine-protein kinase AKT (Homo sapiens) (UniProt P31751+Q9Y243+P31749); experiment: Inhibition of AKT phosphorylation in human H460 cells under detachment conditions at 0.05 to 0.5 uM after 12 hrs by Western blot analysis; assay type: cell-based
Chain of Serine/threonine-protein kinase AKT (Homo sapiens) (P31749 whole entry, looked up): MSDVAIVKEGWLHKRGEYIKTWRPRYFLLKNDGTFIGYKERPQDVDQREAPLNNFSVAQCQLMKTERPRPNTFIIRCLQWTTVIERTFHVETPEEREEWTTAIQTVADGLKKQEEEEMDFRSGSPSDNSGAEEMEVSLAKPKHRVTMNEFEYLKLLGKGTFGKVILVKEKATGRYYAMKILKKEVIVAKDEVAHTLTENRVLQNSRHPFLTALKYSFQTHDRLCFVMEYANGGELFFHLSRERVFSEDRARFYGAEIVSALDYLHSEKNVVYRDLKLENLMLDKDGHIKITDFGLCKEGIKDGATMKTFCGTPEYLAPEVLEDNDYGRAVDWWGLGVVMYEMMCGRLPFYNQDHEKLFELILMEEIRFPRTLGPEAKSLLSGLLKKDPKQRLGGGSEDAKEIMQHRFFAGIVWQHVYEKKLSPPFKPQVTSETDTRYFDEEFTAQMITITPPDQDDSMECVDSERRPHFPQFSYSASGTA
Chain of Serine/threonine-protein kinase AKT (Homo sapiens) (P31751 whole entry, looked up): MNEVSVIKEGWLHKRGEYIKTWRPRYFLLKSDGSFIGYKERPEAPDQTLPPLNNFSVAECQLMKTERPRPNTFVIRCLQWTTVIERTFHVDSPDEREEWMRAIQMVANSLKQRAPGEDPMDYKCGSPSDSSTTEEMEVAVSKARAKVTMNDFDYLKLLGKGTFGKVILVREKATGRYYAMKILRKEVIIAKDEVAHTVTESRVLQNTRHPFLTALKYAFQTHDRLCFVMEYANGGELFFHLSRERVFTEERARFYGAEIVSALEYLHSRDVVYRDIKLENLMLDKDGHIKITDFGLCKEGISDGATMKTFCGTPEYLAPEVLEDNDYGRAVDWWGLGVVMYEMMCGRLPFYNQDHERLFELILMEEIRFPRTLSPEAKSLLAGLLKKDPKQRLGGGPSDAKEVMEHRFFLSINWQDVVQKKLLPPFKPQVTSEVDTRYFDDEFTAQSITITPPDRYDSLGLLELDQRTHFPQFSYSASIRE
Chain of Serine/threonine-protein kinase AKT (Homo sapiens) (Q9Y243 whole entry, looked up): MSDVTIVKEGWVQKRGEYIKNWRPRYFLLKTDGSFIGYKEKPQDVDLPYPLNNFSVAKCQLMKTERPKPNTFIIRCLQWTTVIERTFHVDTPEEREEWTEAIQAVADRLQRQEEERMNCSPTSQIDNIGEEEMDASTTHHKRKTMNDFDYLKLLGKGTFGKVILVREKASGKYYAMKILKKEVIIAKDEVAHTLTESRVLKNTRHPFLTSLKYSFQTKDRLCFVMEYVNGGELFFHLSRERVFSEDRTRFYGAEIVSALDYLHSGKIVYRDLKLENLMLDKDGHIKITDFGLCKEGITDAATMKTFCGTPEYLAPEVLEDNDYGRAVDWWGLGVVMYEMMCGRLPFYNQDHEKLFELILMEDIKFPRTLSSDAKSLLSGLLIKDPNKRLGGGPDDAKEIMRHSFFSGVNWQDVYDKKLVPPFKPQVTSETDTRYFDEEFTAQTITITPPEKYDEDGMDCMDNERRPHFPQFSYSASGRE

NCI-H23 [21] = experiment: Induction of apoptosis in human H23 cells under detachment conditions assessed as viable cells at 0.5 uM after 24 hrs by Annexin V-FITC/propidium iodide staining-based flow cytometric analysis (reference value: 69.96%); assay type: functional; details: NCI-H23, 24 h, read-out: Activity
NCI-H23 [22] = experiment: Antiproliferative activity against human H23 cells assessed as reduction in cell viability at 0.05 to 0.5 uM; assay type: functional, cell-based
NCI-H23 [23] = experiment: Induction of anoikis in human H23 cells harboring with p53 mutant under detachment conditions assessed as decrease in MCL-1 level at 0.05 to 0.5 uM after 12 hrs by Western blot analysis; assay type: functional, cell-based
NCI-H292 [24] = experiment: Antiproliferative activity against human NCI-H292 cells under detachment conditions assessed as reduction in cell viability at 0.05 to 0.5 uM up to 24 hrs by XTT assay; assay type: functional, cell-based
NCI-H292 [25] = experiment: Induction of apoptosis in human NCI-H292 cells under detachment conditions assessed as early apoptotic cells at 0.5 uM after 24 hrs by Annexin V-FITC/propidium iodide staining-based flow cytometric analysis (reference value: 29.96%); assay type: functional
NCI-H460 [26] = experiment: Inhibition of epithelial-mesenchymal transition in human H460 cells under detachment conditions assessed as decrease in snail protein level 0.05 to 0.5 uM after 12 hrs by Western blot analysis; assay type: functional, cell-based
NCI-H460 [27] = experiment: Induction of apoptosis in human H460 cells under detachment conditions assessed as accumulation of necrotic cells at 0.05 to 0.5 uM after 24 hrs by Hoechst 33342/propidium iodide staining based fluorescent microscopic method; assay type: functional, cell-based
NCI-H23 [28] = experiment: Induction of apoptosis in human H23 cells under detachment conditions assessed as late apoptotic cells at 0.5 uM after 24 hrs by Annexin V-FITC/propidium iodide staining-based flow cytometric analysis (reference value: 2.82%); assay type: functional
NCI-H460 [29] = experiment: Induction of anoikis in human H460 cells under detachment conditions assessed as fold change at 0.5 uM after 24 hrs by Annexin V-FITC/propidium iodide staining-based flow cytometric analysis; assay type: functional

Structure (SMILES): COC1=C(C)C(=O)C2=C(C1=O)[C@@H]1[C@@H]3CC4=C(C(=O)C(OC)=C(C)C4=O)[C@H](CO)N3[C@@H](C#N)[C@H](C2)N1C [JOURNNAMYCIN A]
- inhibition (NCI-H460 [1]): Active
- Activity (NCI-H460 [2]): 26.4%
- Activity (NCI-H23 [3]): Active
- Activity (NCI-H292 [4]): 0.4%
- Activity (NCI-H460 [5]): inactive
- inhibition (NCI-H460 [6]): Active
- inhibition (Homo sapiens [7]): Active
- Activity (NCI-H23 [8]): Active
- Activity (NCI-H460 [9]): Active
- Activity (NCI-H460 [10]): Active
- Activity (NCI-H460 [11]): inactive
- Activity (NCI-H23 [12]): inactive
- Activity (NCI-H23 [13]): inactive
- inhibition (Homo sapiens [14]): Active
- Activity (NCI-H460 [15]): 48.01%
- Activity (NCI-H292 [16]): 28.13%
- inhibition (NCI-H292 [17]): Active
- Activity (NCI-H460 [18]): Dose-dependent effect
- inhibition (NCI-H23 [19]): Active
- inhibition [20]: Active
- viability at 0.5 µM (NCI-H23 [21]): 44.6%
- Activity (NCI-H23 [22]): inactive
- Activity (NCI-H23 [23]): Active
- Activity (NCI-H292 [24]): Active
- Activity (NCI-H292 [25]): 45.68%
- inhibition (NCI-H460 [26]): Active
- Activity (NCI-H460 [27]): inactive
- Activity (NCI-H23 [28]): 17.1%
- Activity (NCI-H460 [29]): 1.39%
